# “Also recorded” adds a separate entry of the source.
# How the values were obtained:
# [1] = tested on: MCF10A cells expressing a doxycycline-inducible HORMAD1 cDNA expression construct; details: 300 nM nocodazole 6 hours, then 100 nM reversine
# Procedure: (§1) HeLa cells were transfected with two individual siRNA particles targeting HORMAD1 as well as a non-targeting control, grown for three days at which point cell lysates were generated and analysed SDS-PAGE and western blotting using anti-HORMAD1 and anti-H3 antibodies. […] HeLa cells were transfected with two individual siRNA particles targeting HORMAD1 as well as a non-targeting control, grown for three days at which point cells were exposed to 300 nM nocodazole and filmed every 4 minutes using time-lapse microscopy. The time individual cells remained arrested in mitosis was quantified and presented as the % of cells arrested in mitosis at each time point. Data reflects a total of 125 cells from 3 biological repeats and was analysed using Mantel-Cox test with Bonferonni correction. C. […] MDA-MB-436 cells expressing two individual, doxycycline-inducible, shRNA particles targeting HORMAD1 as well as a non-targeting control were grown for three days in the presence of doxycycline at which point cell lysates were generated and analysed SDS-PAGE and western blotting using anti-HORMAD1 and anti-6-ACTIN antibodies. […] MDA-MB-436 cells expressing two individual, doxycycline-inducible, shRNA particles targeting HORMAD1 as well as a non-targeting control were grown for three days in the presence of doxycycline at which point cells were exposed to 300 nM nocodazole and filmed every 4 minutes using time-lapse microscopy. The time individual cells remained arrested in mitosis was quantified and presented as the % of cells arrested in mitosis at each time point. Data reflects a total of 50 cells from 2 biological repeats and was analysed using Mantel-Cox test with Bonferonni correction. […] The time individual cells remained arrested in mitosis was quantified and presented as the % of cells arrested in mitosis at each time point. […] The time individual cells remained arrested in mitosis was quantified and presented as the % of cells arrested in mitosis at each time point.
# [2] = tested on: HeLa cells transfected with siRNA targeting HORMAD1; details: 300 nM nocodazole 6 hours, then 100 nM reversine
# Procedure: as §1
# [3] = tested on: SUM159 cells induced to express HORMAD1; details: 300 nM nocodazole 6 hours, then 100 nM reversine
# Procedure: as §1
# [4] = tested on: MDA-MB-436 cells expressing shRNA targeting HORMAD1; details: 300 nM nocodazole 6 hours, then 200 nM reversine
# Procedure: as §1
# [5] = tested on: H1299 cells expressing shRNA targeting HORMAD1; details: 300 nM nocodazole 6 hours, then 200 nM reversine
# Procedure: A. Diagram of experimental outline. Cells were exposed to doxycycline for 3 days, arrested in mitosis using 300 nM nocodazole or 100 nM Paclitaxel. Mitotic cells were filmed every 4 minutes for 1200 minutes, and the time cells remained arrested in mitosis before exiting via mitotic slippage was assessed. […] RPE1 cells expressing a doxycycline-inducible HORMAD1 cDNA expression construct were exposed to doxycycline or vehicle (H2O) for three days at which point cells were exposed to 300 nM nocodazole and filmed every 4 minutes using time-lapse microscopy. The time individual cells remained arrested in mitosis was quantified and presented as the % of cells arrested in mitosis at each time point. Data reflects a total of 125 cells from 3 biological repeats and was analysed using Mantel-Cox test. C. […] The time individual cells remained arrested in mitosis was quantified and presented as the % of cells arrested in mitosis at each time point. Data reflects a total of 125 cells from 3 biological repeats and was analysed using Mantel-Cox test. […] H1299 cells expressing two individual, doxycycline-inducible, shRNA particles targeting HORMAD1 as well as a non-targeting control were grown for three days in the presence of doxycycline at which point cell lysates were generated and analysed by SDS-PAGE and western blotting using anti-HORMAD1 and anti-β-ACTIN antibodies. […]
# [6] = tested on: RPE1 cells expressing a doxycycline-inducible HORMAD1 expression construct; test: Mitotic slippage by time-lapse microscopy in nocodazole-arrested RPE1 cells; assay type: cell-based
# Procedure: A. Diagram of experimental outline. Cells were exposed to doxycycline for 3 days, arrested in mitosis using 300 nM nocodazole or 100 nM Paclitaxel. Mitotic cells were filmed every 4 minutes for 1200 minutes, and the time cells remained arrested in mitosis before exiting via mitotic slippage was assessed. […] RPE1 cells expressing a doxycycline-inducible HORMAD1 cDNA expression construct were exposed to doxycycline or vehicle (H2O) for three days at which point cells were exposed to 300 nM nocodazole and filmed every 4 minutes using time-lapse microscopy. The time individual cells remained arrested in mitosis was quantified and presented as the % of cells arrested in mitosis at each time point. Data reflects a total of 125 cells from 3 biological repeats and was analysed using Mantel-Cox test. C. […] The time individual cells remained arrested in mitosis was quantified and presented as the % of cells arrested in mitosis at each time point. Data reflects a total of 125 cells from 3 biological repeats and was analysed using Mantel-Cox test. […] H1299 cells expressing two individual, doxycycline-inducible, shRNA particles targeting HORMAD1 as well as a non-targeting control were grown for three days in the presence of doxycycline at which point cell lysates were generated and analysed by SDS-PAGE and western blotting using anti-HORMAD1 and anti-β-ACTIN antibodies. […] The time individual cells remained arrested in mitosis was quantified and presented as the % of cells arrested in mitosis at each time point. Data reflects a total of 90 cells from 3 biological repeats and was analysed using Mantel-Cox test with Bonferonni correction. […] Mitotic cells were filmed every 2 minutes for 400 minutes, and the time taken before cells exited mitosis via mitotic slippage was assessed. […] The time individual cells remained arrested in mitosis was quantified and presented as the % of cells arrested in mitosis at each time point. […] The time individual cells remained arrested in mitosis was quantified and presented as the % of cells arrested in mitosis at each time point. […]
# AURORA A kinase = biological target: T1, AURORA A kinase (Homo sapiens, UniProt O14965); details: Shimomura et al., 2010; cited from earlier work
# T1 sequence (O14965 1-403): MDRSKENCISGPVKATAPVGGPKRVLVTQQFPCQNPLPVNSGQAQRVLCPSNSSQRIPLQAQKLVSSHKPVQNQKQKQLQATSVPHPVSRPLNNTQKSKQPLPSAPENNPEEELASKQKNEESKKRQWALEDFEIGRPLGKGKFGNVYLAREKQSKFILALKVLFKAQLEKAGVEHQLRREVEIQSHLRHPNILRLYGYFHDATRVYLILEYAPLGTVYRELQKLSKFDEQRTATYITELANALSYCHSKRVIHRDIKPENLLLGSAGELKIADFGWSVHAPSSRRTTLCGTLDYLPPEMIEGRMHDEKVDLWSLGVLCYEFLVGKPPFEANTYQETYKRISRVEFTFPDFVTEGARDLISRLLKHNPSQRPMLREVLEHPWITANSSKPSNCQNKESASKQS
# [7] = tested on: RPE1 cells expressing a doxycycline-inducible HORMAD1 construct; test: Clonogenic survival assay (SRB) in RPE1 cells with doxycycline-inducible HORMAD1; assay type: cell-based; details: increasing doses, 7-14 days, normalised to vehicle
# Procedure: Cell confluence was analysed every 6 hours for 10 days, using incucyte software. Data are from 3 biological replicates and analysed using a two-way ANOVA. […] RPE1 cells expressing a doxycycline-inducible HORMAD1 expression construct were exposed to doxycycline or vehicle (H2O) and were exposed to 20 nM of the Aurora B inhibitor, AZD1152-HQPA. Cell confluence was analysed every 6 hours for 10 days, using incucyte software. Data are from 3 biological replicates and analysed using a two-way ANOVA. […] 7-10 days post drugging, cells were fixed, stained with SRB, and colonies were counted using Cell Profiler. […] 10 days post drugging, cells were fixed, stained with SRB, and colonies were counted using Cell Profiler. […] RPE1 cells expressing a doxycycline-inducible HORMAD1 expression construct were exposed to doxycycline or vehicle (H2O) and to increasing doses of the Aurora B inhibitor, AZD1152-HQPA. 7-10 days post drugging, cells were fixed, stained with SRB, and colonies were counted using Cell Profiler. […] SUM159 cells expressing a doxycycline-inducible HORMAD1 expression construct were exposed to doxycycline or vehicle (H2O) and to increasing doses of the Aurora B inhibitor, AZD1152-HQPA. 10 days post drugging, cells were fixed, stained with SRB, and colonies were counted using Cell Profiler.
# RPE1 cells were reverse transfected with BUB1 or control siRNA particles for 3 days. Cell lysates were collected, and analysed by western blotting using anti-BUB1 and anti-β-ACTIN antibodies. […] RPE1 cells expressing a doxycycline-inducible HORMAD1 expression construct were exposed to doxycycline or vehicle, and were reverse transfected with BUB1 or control siRNA particles. 5 days post transfection, cellular viability was estimated using cell titer glo reagent and surviving fractions were calculated relative to DMSO treated cells. […] Statistical significance estimated using a one-way ANOVA with Sidak's correction. C. Western blot illustrating expression of HORMAD1 in wild-type RPE1 cells and RPE1 cells depleted of BUB1 using CRISPR. WT and BUB1 depleted RPE1 cells expressing a doxycycline-inducible HORMAD1 expression construct, were exposed to doxycycline or vehicle for 3 days. Cell lysates were collected, and analysed by SDS-PAGE and western blotting using anti-HORMAD1, anti-H3 and anti-BUB1 antibodies. […] WT and BUB1 depleted RPE1 cells expressing a doxycycline-inducible HORMAD1 expression construct were exposed to doxycycline or vehicle. 7-10 days post doxycycline induction, cells were fixed, stained with SRB, and cellular viability was estimated using SRB absorbance readings. […] Statistical significance estimated using a one-way ANOVA with Sidak's correction. […] RPE1 expressing a doxycycline-inducible HORMAD1 expression construct, were exposed to doxycycline or vehicle. […] Cells were fixed, stained with SRB, and cellular viability was estimated using SRB absorbance readings. […] Cells were imaged every 4 hours, and confluence was continually measured using incucyte software. Growth curves were plotted, based on confluence. Data represent 3 biological replicas. […] Patient-derived organoids models were grown in culture and cell lysates collected and analysed using SDS-PAGE and western blotting using anti-HORMAD1 and anti-β-ACTIN antibodies. […] Cellular viability was estimated using cell titer glo reagent and surviving fractions were calculated relative to DMSO treated cells. […] Left, dose response curves for each organoid.
# [8] = tested on: RPE1 cells expressing a doxycycline-inducible HORMAD1 construct; test: Cell viability by cell titre glo in RPE1 cells with doxycycline-inducible HORMAD1; assay type: cell-based; details: increasing doses, 5 days post drug, cell titre glo, normalised to vehicle
# Procedure: RPE1 cells expressing a doxycycline-inducible HORMAD1 construct were treated with doxycycline or vehicle. […] Six days post HORMAD1 induction and 5 days post drug, cell viability was estimated using cell titre glo reagent. Surviving fractions were calculated (normalised to vehicle treated cells).
# RPE1 and SUM159 cells expressing a doxycycline-inducible HORMAD1 construct were treated with doxycycline or vehicle. […] Surviving fractions were calculated (normalised to vehicle treated cells). (FIGS. 7a, b and 14c and d). Data from 3 replicas was analysed using 2-way ANOVA. 5 days post drugging, cell viability was estimated using cell titre glo reagent. Surviving fractions were calculated (normalised to vehicle treated cells). Data from 4 replicas was analysed using 2-way ANOVA.
# RPE1 cells expressing a doxycycline-inducible HORMAD1 construct were treated with doxycycline or vehicle. […] 5 days post drugging, cell viability was estimated using cell titre glo reagent. Surviving fractions were calculated (normalised to vehicle treated cells).
# RPE1 cells expressing a doxycycline-inducible HORMAD1 construct were treated with doxycycline or vehicle in order to induce HORMAD1 expression. […] Using cell titre glo as a measure of cell viability, surviving fractions were calculated (normalised to eribulin alone).
# RPE1 cells expressing a doxycycline-inducible HORMAD1 construct were treated with doxycycline or vehicle. […] Using cell titre glo as a measure of cell viability, surviving fractions were calculated (normalised to olaparib alone).
# [9] = Mortlock et al., 2007; cited from earlier work
compound,measurement,setting,value
"c1nc2nc(Nc3ccc(N4CCOCC4)cc3)nc(NC3CCCCC3)c2[nH]1 [reversine, 2-(4-morpholinoanilino)-6-cyclohexylaminopurine]",mitotic slippage in MCF10A cells induced to express HORMAD1,[1],premature mitotic slippage
same,mitotic slippage in HeLa cells depleted of HORMAD1,[2],delayed mitotic slippage
same,mitotic slippage in SUM159 cells induced to express HORMAD1,[3],premature mitotic slippage
same,mitotic slippage in MDA-MB-436 cells depleted of HORMAD1,[4],delayed mitotic slippage
same,mitotic slippage in H1299 cells depleted of HORMAD1,[5],delayed mitotic slippage
same,time before slippage in RPE1 cells expressing only the HORMA domain,"[6]; 300 nM nocodazole 6 hours, then 100 nM reversine",reduced
same,mitotic slippage / mitotic exit in HORMAD1 induced RPE1 cells,"[6]; 300 nM nocodazole arrest, then 100-200 nM reversine, 50 nM BOS172722 or AZD1152-HQPA",rapid mitotic exit; also recorded: premature mitotic slippage
O=C(O)[C@]1(Cc2cccc(Nc3nccs3)n2)CC[C@@H](Oc2cccc(Cl)c2F)CC1 [MK-5108],concentrations inhibiting AURORA A kinase activity,AURORA A kinase,sub-nanomolar
same,specificity over AURORA B and C,AURORA A kinase,~200 fold
same,clonogenic survival / sensitivity of HORMAD1 expressing versus HORMAD1-negative RPE1 cells,[7],confirmed these findings; also recorded: increased Aurora inhibitor sensitivity
same,growth inhibition (surviving fraction) of HORMAD1 expressing versus HORMAD1-negative RPE1 cells,[8],more effectively inhibited
AZ-3146,clonogenic survival / sensitivity of HORMAD1 expressing versus HORMAD1-negative RPE1 cells,[7],confirmed these findings; also recorded: increased MPSI inhibitor sensitivity
CCN(CCCOc1ccc2c(Nc3cc(CC(=O)Nc4cccc(F)c4)n[nH]3)ncnc2c1)CCOP(=O)(O)O [AZD1152],conversion of prodrug in plasma,[9],rapidly converted into AZD1152-HQPA

# Reference: patent US20240050434A1, “HORMAD1 THERAPEUTICS” (Royal Cancer Hospital, priority 2020, published 2024)
